Measurements from ChEMBL document CHEMBL1153744, “Diketopiperazines from the Cordyceps-colonizing fungus Epicoccum nigrum” (J Nat Prod, 2009).

What was measured:
[1] = tested on: Human immunodeficiency virus 1; assay: Inhibition of HIV1 viral replication infected in human C8166 cells assessed as suppression of virion-associated p24 antigen production after 4 days by ELISA; type: functional, organism-based; conditions: Human immunodeficiency virus 1, C8166, 96 h
[2] = Cytotoxicity against human […] cells after 4 days by MTT assay; type: cell-based

| SMILES | EC50 [1] | CC50 at 96 h [2] |
| --- | --- | --- |
| CN1C(=O)[C@H](Cc2ccccc2)NC(=O)/C1=C/c1ccccc1 [DIPHENYLALAZINE A] | 27.9 µM | > 100 µM |
| CS[C@@]12C[C@H]3C(=O)CC[C@H](O)[C@H]3N1C(=O)[C@]1(SC)C[C@H]3C(=O)CC[C@H](O)[C@H]3N1C2=O [EPICOCCIN G] | 13.5 µM | > 100 µM |
| CS[C@@]12C[C@H]3C(=O)C[C@H](O)[C@H](O)[C@H]3N1C(=O)[C@]1(SC)C[C@H]3C(=O)C[C@H](O)[C@H](O)[C@H]3N1C2=O [EPICOCCIN H] | 42.2 µM | > 100 µM |
